# Reference: the supplement of paper PMC10307832
# How the values were obtained:
# Assay in all cases: relative viability (nuclei count vs DMSO), 5 days (fraction); higher = more cells survive
# NCI-H1944 = system: NCI-H1944
# Summary of the method: (§1)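 Lung cancer cell lines in 1536-well plates were dosed by pin tool the day after seeding, either with one drug alone or with a fixed anchor-drug dose plus five library-drug doses (not always all listed) in √10 steps. After 5 days, cells were fixed and their nuclei stained in one step (final 0.05% Triton X-100, 1% formaldehyde, 1 ug/ml Hoechst), then counted on 4× images. Relative viability is the nuclei count in treated wells divided by that in vehicle wells. Values are medians of duplicate plates.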
# NCI-H1975 = system: NCI-H1975
# Summary of the method: as §1
# NCI-H1734 = system: NCI-H1734
# Summary of the method: as §1
# NCI-H2170 = system: NCI-H2170
# Summary of the method: as §1
# PC-3 [JPC-3] = system: PC-3 [JPC-3]
# Summary of the method: as §1
# A-427 = system: A-427
# Summary of the method: as §1
# EKVX = system: EKVX
# Summary of the method: as §1
# LOU-NH91 = system: LOU-NH91
# Summary of the method: as §1
# NCI-H441 = system: NCI-H441
# Summary of the method: as §1
# SW 900 = system: SW 900
# Summary of the method: as §1
# NCI-H520 = system: NCI-H520
# Summary of the method: as §1
# HCC-366 = system: HCC-366
# Summary of the method: as §1
# NCI-H1666 = system: NCI-H1666
# Summary of the method: as §1
# ChaGo-K-1 = system: ChaGo-K-1
# Summary of the method: as §1
# COR-L 105 = system: COR-L 105
# Summary of the method: as §1
# NCI-H1755 = system: NCI-H1755
# Summary of the method: as §1
# LK-2 = system: LK-2
# Summary of the method: as §1
# SK-MES-1 = system: SK-MES-1
# Summary of the method: as §1
# NCI-H23 = system: NCI-H23
# Summary of the method: as §1
# NCI-H596 = system: NCI-H596
# Summary of the method: as §1
# H3255 = system: H3255
# Summary of the method: as §1
# EMC-BAC-2 = system: EMC-BAC-2
# Summary of the method: as §1
structure (smiles),measurement,setting,value
CC(C)Oc1cc(Nc2nc(N[C@@H](C)c3ccc(F)cn3)ncc2Cl)n[nH]1 [AZ23] + Cc1cc(Nc2cc(N3CCN(C)CC3)nc(Sc3ccc(NC(=O)C4CC4)cc3)n2)n[nH]1 [Tozasertib] (partner 0.1 µM),relative viability,NCI-H1944; first compound 0.01 µM,0.279
same,relative viability,NCI-H1944; first compound 0.03162 µM,0.247
same,relative viability,NCI-H1944; first compound 0.3162 µM,0.243
same,relative viability,NCI-H1975; first compound 0.01 µM,0.836
same,relative viability,NCI-H1975; first compound 0.03162 µM,0.977
same,relative viability,NCI-H1975; first compound 0.3162 µM,0.744
same,relative viability,NCI-H1734; first compound 0.01 µM,0.252
same,relative viability,NCI-H1734; first compound 0.03162 µM,0.289
same,relative viability,NCI-H1734; first compound 0.3162 µM,0.276
same,relative viability,NCI-H2170; first compound 0.01 µM,0.836
same,relative viability,NCI-H2170; first compound 0.03162 µM,0.752
same,relative viability,NCI-H2170; first compound 0.3162 µM,0.831
same,relative viability,PC-3 [JPC-3]; first compound 0.01 µM,1.03
same,relative viability,PC-3 [JPC-3]; first compound 0.03162 µM,0.87
same,relative viability,PC-3 [JPC-3]; first compound 0.3162 µM,0.959
same,relative viability,A-427; first compound 0.01 µM,0.174
same,relative viability,A-427; first compound 0.03162 µM,0.193
same,relative viability,A-427; first compound 0.3162 µM,0.177
same,relative viability,EKVX; first compound 0.01 µM,0.471
same,relative viability,EKVX; first compound 0.03162 µM,0.458
same,relative viability,EKVX; first compound 0.3162 µM,0.407
same,relative viability,LOU-NH91; first compound 0.01 µM,0.641
same,relative viability,LOU-NH91; first compound 0.03162 µM,0.72
same,relative viability,LOU-NH91; first compound 0.3162 µM,0.644
same,relative viability,NCI-H441; first compound 0.01 µM,0.813
same,relative viability,NCI-H441; first compound 0.03162 µM,0.782
same,relative viability,NCI-H441; first compound 0.3162 µM,0.609
same,relative viability,SW 900; first compound 0.01 µM,0.536
same,relative viability,SW 900; first compound 0.03162 µM,0.654
same,relative viability,SW 900; first compound 0.3162 µM,0.532
same,relative viability,NCI-H520; first compound 0.01 µM,0.455
same,relative viability,NCI-H520; first compound 0.03162 µM,0.485
same,relative viability,NCI-H520; first compound 0.3162 µM,0.475
same,relative viability,HCC-366; first compound 0.01 µM,0.114
same,relative viability,HCC-366; first compound 0.03162 µM,0.152
same,relative viability,HCC-366; first compound 0.3162 µM,0.234
same,relative viability,NCI-H1666; first compound 0.01 µM,0.558
same,relative viability,NCI-H1666; first compound 0.03162 µM,0.583
same,relative viability,NCI-H1666; first compound 0.3162 µM,0.545
same,relative viability,ChaGo-K-1; first compound 0.01 µM,0.234
same,relative viability,ChaGo-K-1; first compound 0.03162 µM,0.234
same,relative viability,ChaGo-K-1; first compound 0.3162 µM,0.235
same,relative viability,COR-L 105; first compound 0.01 µM,0.375
same,relative viability,COR-L 105; first compound 0.03162 µM,0.447
same,relative viability,COR-L 105; first compound 0.3162 µM,0.365
same,relative viability,NCI-H1755; first compound 0.01 µM,0.556
same,relative viability,NCI-H1755; first compound 0.03162 µM,0.613
same,relative viability,NCI-H1755; first compound 0.3162 µM,0.664
same,relative viability,LK-2; first compound 0.01 µM,0.184
same,relative viability,LK-2; first compound 0.03162 µM,0.222
same,relative viability,LK-2; first compound 0.3162 µM,0.195
same,relative viability,SK-MES-1; first compound 0.03162 µM,1.1
same,relative viability,SK-MES-1; first compound 0.3162 µM,0.942
same,relative viability,NCI-H23; first compound 0.03162 µM,0.558
same,relative viability,NCI-H23; first compound 0.3162 µM,0.363
same,relative viability,NCI-H596; first compound 0.01 µM,1
same,relative viability,NCI-H596; first compound 0.03162 µM,0.826
same,relative viability,NCI-H596; first compound 0.3162 µM,0.827
same,relative viability,H3255; first compound 0.01 µM,0.662
same,relative viability,H3255; first compound 0.03162 µM,0.821
same,relative viability,H3255; first compound 0.3162 µM,0.675
same,relative viability,EMC-BAC-2; first compound 0.01 µM,0.262
same,relative viability,EMC-BAC-2; first compound 0.03162 µM,0.28
same,relative viability,EMC-BAC-2; first compound 0.3162 µM,0.296
